Data taken from patent US6495588B2, “Scytonemin and methods of using thereof” (The Regents of the University of California, priority 2000, dated 2002).

Experiments:
GST-Myt1 = target: T1, GST-Myt1 (Homo sapiens, UniProt Q99640); assay: GST-Myt1 autophosphorylation DELFIA assay; assay type: biochemical; settings: 1 μM ATP
T1 construct: The Myt1 gene was truncated after amino acid 379 and just prior to the membrane-anchoring domain; made in house; host or cells: Sf9 (baculovirus, pFASTBAC)
T1 sequence (Q99640 1-379): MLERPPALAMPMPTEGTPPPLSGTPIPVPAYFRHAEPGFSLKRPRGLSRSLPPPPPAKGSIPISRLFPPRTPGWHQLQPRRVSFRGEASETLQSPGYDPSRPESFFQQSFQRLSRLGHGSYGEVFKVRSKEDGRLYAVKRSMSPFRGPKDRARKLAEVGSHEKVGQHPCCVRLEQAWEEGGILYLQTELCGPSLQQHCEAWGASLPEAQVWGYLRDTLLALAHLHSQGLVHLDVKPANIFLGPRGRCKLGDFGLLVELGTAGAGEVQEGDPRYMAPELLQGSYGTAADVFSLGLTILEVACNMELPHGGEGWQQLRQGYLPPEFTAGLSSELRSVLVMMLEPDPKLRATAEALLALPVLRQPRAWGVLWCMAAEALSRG
From the text: To determine the effect of SCY on GST-Myt1 activity, a rh-GST-Myt1 expression vector was constructed to include gst fused to the amino terminus of a truncated human Myt1 gene via a linker comprising a thrombin cleavage site. The Myt1 gene was truncated after amino acid 379 and just prior to the membrane-anchoring domain. The construct was cloned into the baculovirus expression system, pFASTBAC (Gibco-BRL, Gaithersburg, Md.).
Spodoptera frugiperda 9 (Sf9) cells were infected with the virus and grown for three days before purifying as described in Roshak et al. (2000) for GST-PLK1 and GST-cdc25C to 75% purity as determined by SDS-PAGE analysis and Coomassie Blue staining. Dissociative enhanced lanthanide fluorescence immunoassays (DELFIA) (Wallac OY, Turku, Finland) were performed in 50 μl/well with 0.25 μg GST-Myt1, in reaction buffer (50 mM HEPES, pH 7.4, 2 mM Mn(OAc)2, 1 μM ATP, 1 mM DTT (final reaction concentrations)), and SCY (1 nM to 10 μM final reaction concentration). […]
Reactions were allowed to proceed at room temperature with shaking for 20 minutes and were stopped with the addition of EDTA to give a final concentration of 20 mM, and the protein was allowed to bind to the wells for an additional 40 minutes. […] The plate was then read on the 1420 VICTOR plate counter from Wallac, Inc.

GST-CHK1 = target: T2, GST-CHK1 (Homo sapiens, UniProt O14757); assay: GST-Chk1 activity assay; assay type: biochemical; settings: 10 μM cold ATP, GST-cdc25C substrate
T2 construct: made in house
T2 sequence (O14757 1-476): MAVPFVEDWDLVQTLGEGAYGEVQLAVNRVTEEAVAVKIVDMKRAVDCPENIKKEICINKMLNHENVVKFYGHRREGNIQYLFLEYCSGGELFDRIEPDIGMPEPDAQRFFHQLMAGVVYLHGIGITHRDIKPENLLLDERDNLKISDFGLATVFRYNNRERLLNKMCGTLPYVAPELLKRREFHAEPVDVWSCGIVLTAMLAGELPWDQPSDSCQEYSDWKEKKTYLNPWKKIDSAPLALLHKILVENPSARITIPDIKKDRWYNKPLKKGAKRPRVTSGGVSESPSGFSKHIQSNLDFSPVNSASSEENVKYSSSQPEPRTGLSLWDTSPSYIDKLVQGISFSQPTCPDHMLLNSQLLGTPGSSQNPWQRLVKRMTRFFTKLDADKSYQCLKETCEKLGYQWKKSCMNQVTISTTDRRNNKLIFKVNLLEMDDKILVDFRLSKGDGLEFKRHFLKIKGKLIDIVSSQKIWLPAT
Protocol: To determine the effect of SCY on GST-Chk1 activity, the following assay was conducted. GST-Chk1 were expressed and purified using a method previously described in Jackson et al. (2000) Can. Res. 60:566-572, which is herein incorporated by reference. GST-Chk1 was purified to […] purity as determined via SDS-PAGE analysis. The remaining 30% was attributed to free GST. Flashplates were coated with 1 μg GST-cdc25C and 100 μM ATP at 4° C. The plates were washed twice with PBS, then 0.5 μCi [^33P]-γATP, 10 μM cold ATP, and 2 μg GST-CHK1, were added to the wells in kinase reaction buffer comprising 20 mM HEPES (pH 7.4), 50 mM KCl, 10 mM MgCl2, 1 mM EGTA, and 0.5 mM DTT. Activity was measured in the presence of scytonemin (SCY) in 100% DMSO yielding a 4% DMSO final concentration. Reactions were initiated by the addition of the enzyme, incubated at 37° C. for 30 minutes, and stopped by washing the plates five times with PBS. The amount of [^33P]-γATP incorporation was measured on a Packard Top-count.

[1] = test system: CAP-induced mouse ear edema; assay: Capsaicin (CAP)-induced mouse ear edema assay; assay type: in vivo
Protocol: Various dilutions of test compounds were topically applied in acetone to the inside and outside surfaces of the left ears of mice in a solution comprising 0.1 μg RTX or 250 μg CAP per ear. A control, acetone, was applied to all right ears. After a 30 minute incubation, the mice were sacrificed, the ears removed, and bores taken and weighed.
For systemic studies, the test compounds were administered by intraperitoneal injection in a vehicle comprising 20% propylene glycol, 80% saline and 3 drops TWEEN-20 30 minutes or 1 hour prior to topical application of RTX or CAP. Control animals were injected with vehicle only. 0.1 μg RTX or 250 μg CAP was applied to the left ears and acetone was applied to the right ears. After 30 minutes of incubation, the mice were scarified, ears removed and bores taken and weighed.
Edema was measured by subtracting the weight of the right ear (control) from the weight of the left ear. The results were recorded as % decrease (inhibition) or % increase (potentiation) in edema relative to the control group edema.

scytonemin
IC50 (GST-Myt1): ~1 µM
IC50 (GST-CHK1): ~1.4 µM
inhibition of edema ([1]; systemic 10 mg/kg, 30 minutes before topical CAP): no inhibition of edema
inhibition of edema ([1]; topical 500 μg/ear against 250 μg/ear CAP): ~24%
